Columns and labels:
[1] = human, plasma
Description: Unbound fraction (plasma)

clinical = details: human, in vivo
Description: Observed volume of distribution

[2] = Ionization constant (pKa); assay type: physicochemical

SMILES	Fu [1]	Vd (clinical) [L/kg]	pKa [2]
CC(C)(C)NCC(O)COc1cccc2c1C[C@H](O)[C@H](O)C2 (stereo not given in full) [NADOLOL]	0.7	1.94	
OCCN1CCN(CCCN2c3ccccc3Sc3ccc(Cl)cc32)CC1 [PERPHENAZINE]	0.07	20	8.11

Reference: ChEMBL document CHEMBL1148291, “Prediction of human volume of distribution values for neutral and basic drugs. 2. Extended data set and leave-class-out statistics” (J Med Chem, 2004)
